In PubChem BioAssay (NCI):
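Where inhibition never reached the appropriate level, the endpoint shown equals the highest concentration tested. Otherwise, values were interpolated linearly from a five-concentration, 48-hour dose response in 96-well plates. TGI: total growth inhibition.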

What was measured:
Assay in all cases: growth of human tumour cells (NCI), 48 h
A549 NSCLC = tested on: A549 NSCLC
SK-MEL-5 melanoma = tested on: SK-MEL-5 melanoma
HL-60(TB) leukemia = tested on: HL-60(TB) leukemia
HCT-15 colon = tested on: HCT-15 colon
CCRF-CEM leukemia = tested on: CCRF-CEM leukemia
HOP-92 NSCLC = tested on: HOP-92 NSCLC
XF 498 CNS = tested on: XF 498 CNS
M14 melanoma = tested on: M14 melanoma
DLD-1 colon = tested on: DLD-1 colon
HOP-62 NSCLC = tested on: HOP-62 NSCLC
LXFL 529 NSCLC = tested on: LXFL 529 NSCLC
UACC-62 melanoma = tested on: UACC-62 melanoma
SNB-75 CNS = tested on: SNB-75 CNS
DMS 114 small cell lung = tested on: DMS 114 small cell lung
KM12 colon = tested on: KM12 colon
OVCAR-5 ovarian = tested on: OVCAR-5 ovarian
SK-MEL-28 melanoma = tested on: SK-MEL-28 melanoma
786-0 renal = tested on: 786-0 renal
RPMI-8226 leukemia = tested on: RPMI-8226 leukemia
COLO 205 colon = tested on: COLO 205 colon
KM20L2 colon = tested on: KM20L2 colon
SF-295 CNS = tested on: SF-295 CNS
U251 CNS = tested on: U251 CNS
NCI-H226 lung = tested on: NCI-H226 lung
NCI-H23 lung = tested on: NCI-H23 lung
SF-268 CNS = tested on: SF-268 CNS
A498 renal = tested on: A498 renal
SNB-78 CNS = tested on: SNB-78 CNS
SN12C renal = tested on: SN12C renal
CAKI-1 renal = tested on: CAKI-1 renal
UO-31 renal = tested on: UO-31 renal
OVCAR-4 ovarian = tested on: OVCAR-4 ovarian
UACC-257 melanoma = tested on: UACC-257 melanoma
RXF 393 renal = tested on: RXF 393 renal
SR leukemia = tested on: SR leukemia
HT29 colon = tested on: HT29 colon
HCC-2998 colon = tested on: HCC-2998 colon
ACHN renal = tested on: ACHN renal
NCI-H460 lung = tested on: NCI-H460 lung
SK-OV-3 ovarian = tested on: SK-OV-3 ovarian
TK-10 renal = tested on: TK-10 renal
OVCAR-3 ovarian = tested on: OVCAR-3 ovarian
MALME-3M melanoma = tested on: MALME-3M melanoma
HCT-116 colon = tested on: HCT-116 colon
K-562 leukemia = tested on: K-562 leukemia
SNB-19 CNS = tested on: SNB-19 CNS
OVCAR-8 ovarian = tested on: OVCAR-8 ovarian
HOP-18 NSCLC = tested on: HOP-18 NSCLC
LOX IMVI melanoma = tested on: LOX IMVI melanoma
IGROV1 ovarian = tested on: IGROV1 ovarian
SW-620 colon = tested on: SW-620 colon
MOLT-4 leukemia = tested on: MOLT-4 leukemia
EKVX NSCLC = tested on: EKVX NSCLC
SF-539 CNS = tested on: SF-539 CNS
M19-MEL melanoma = tested on: M19-MEL melanoma
NCI-H522 lung = tested on: NCI-H522 lung
SK-MEL-2 melanoma = tested on: SK-MEL-2 melanoma
DMS 273 small cell lung = tested on: DMS 273 small cell lung

Cn1cnc([N+](=O)[O-])c1Sc1nc2ncccc2[nH]1
TGI (A549 NSCLC): > 100 µM | TGI (SK-MEL-5 melanoma): > 100 µM | TGI (HL-60(TB) leukemia): 62.6 µM | TGI (HCT-15 colon): > 100 µM | TGI (CCRF-CEM leukemia): 64.2 µM | TGI (HOP-92 NSCLC): > 100 µM | TGI (XF 498 CNS): > 100 µM | TGI (M14 melanoma): > 100 µM | TGI (DLD-1 colon): > 100 µM | TGI (HOP-62 NSCLC): > 100 µM | TGI (LXFL 529 NSCLC): > 100 µM | TGI (UACC-62 melanoma): > 100 µM | TGI (SNB-75 CNS): > 100 µM | TGI (DMS 114 small cell lung): 74.4 µM | TGI (KM12 colon): > 100 µM | TGI (OVCAR-5 ovarian): > 100 µM | TGI (SK-MEL-28 melanoma): > 100 µM | TGI (786-0 renal): > 100 µM | TGI (RPMI-8226 leukemia): > 100 µM | TGI (COLO 205 colon): 56.5 µM | TGI (KM20L2 colon): > 100 µM | TGI (SF-295 CNS): > 100 µM | TGI (U251 CNS): > 100 µM | TGI (NCI-H226 lung): > 100 µM | TGI (NCI-H23 lung): > 100 µM | TGI (SF-268 CNS): > 100 µM | TGI (A498 renal): > 100 µM | TGI (SNB-78 CNS): > 100 µM | TGI (SN12C renal): > 100 µM | TGI (CAKI-1 renal): 85.6 µM | TGI (UO-31 renal): > 100 µM | TGI (OVCAR-4 ovarian): > 100 µM | TGI (UACC-257 melanoma): > 100 µM | TGI (RXF 393 renal): > 100 µM | TGI (SR leukemia): > 100 µM | TGI (HT29 colon): > 100 µM | TGI (HCC-2998 colon): > 100 µM | TGI (ACHN renal): > 100 µM | TGI (NCI-H460 lung): > 100 µM | TGI (SK-OV-3 ovarian): > 100 µM | TGI (TK-10 renal): > 100 µM | TGI (OVCAR-3 ovarian): > 100 µM | TGI (MALME-3M melanoma): > 100 µM | TGI (HCT-116 colon): > 100 µM | TGI (K-562 leukemia): > 100 µM | TGI (SNB-19 CNS): > 100 µM | TGI (OVCAR-8 ovarian): > 100 µM | TGI (HOP-18 NSCLC): > 100 µM | TGI (LOX IMVI melanoma): > 100 µM | TGI (IGROV1 ovarian): > 100 µM | TGI (SW-620 colon): > 100 µM | TGI (MOLT-4 leukemia): > 100 µM | TGI (EKVX NSCLC): > 100 µM | TGI (SF-539 CNS): > 100 µM

CCSc1nc(-c2ccc(OC)cc2)c(C#N)c(=O)n1C1OCC(OC(C)=O)C(OC(C)=O)C1OC(C)=O (centres undefined)
TGI (A549 NSCLC): > 100 µM | TGI (SK-MEL-5 melanoma): > 100 µM | TGI (HCT-15 colon): > 100 µM | TGI (M19-MEL melanoma): > 100 µM | TGI (HOP-92 NSCLC): > 100 µM | TGI (M14 melanoma): > 100 µM | TGI (DLD-1 colon): > 100 µM | TGI (HOP-62 NSCLC): > 100 µM | TGI (LXFL 529 NSCLC): > 100 µM | TGI (UACC-62 melanoma): > 100 µM | TGI (SNB-75 CNS): > 100 µM | TGI (DMS 114 small cell lung): > 100 µM | TGI (KM12 colon): > 100 µM | TGI (OVCAR-5 ovarian): > 100 µM | TGI (SK-MEL-28 melanoma): > 100 µM | TGI (786-0 renal): > 100 µM | TGI (RPMI-8226 leukemia): > 100 µM | TGI (COLO 205 colon): > 100 µM | TGI (KM20L2 colon): > 100 µM | TGI (SF-295 CNS): > 100 µM | TGI (U251 CNS): > 100 µM | TGI (NCI-H226 lung): > 100 µM | TGI (NCI-H23 lung): > 100 µM | TGI (SF-268 CNS): > 100 µM | TGI (A498 renal): > 100 µM | TGI (SNB-78 CNS): > 100 µM | TGI (SN12C renal): > 100 µM | TGI (CAKI-1 renal): > 100 µM | TGI (UO-31 renal): > 100 µM | TGI (OVCAR-4 ovarian): > 100 µM | TGI (UACC-257 melanoma): > 100 µM | TGI (RXF 393 renal): > 100 µM | TGI (SR leukemia): > 100 µM | TGI (NCI-H522 lung): > 100 µM | TGI (HT29 colon): > 100 µM | TGI (HCC-2998 colon): > 100 µM | TGI (ACHN renal): > 100 µM | TGI (NCI-H460 lung): > 100 µM | TGI (SK-OV-3 ovarian): > 100 µM | TGI (TK-10 renal): > 100 µM | TGI (SK-MEL-2 melanoma): > 100 µM | TGI (MALME-3M melanoma): > 100 µM | TGI (HCT-116 colon): > 100 µM | TGI (DMS 273 small cell lung): > 100 µM | TGI (K-562 leukemia): > 100 µM | TGI (SNB-19 CNS): > 100 µM | TGI (HOP-18 NSCLC): > 100 µM | TGI (IGROV1 ovarian): > 100 µM | TGI (SW-620 colon): > 100 µM | TGI (MOLT-4 leukemia): > 100 µM | TGI (EKVX NSCLC): > 100 µM | TGI (SF-539 CNS): > 100 µM

Cc1cc([N+](=O)[O-])c(C)c2c1[nH]c1ccc(O)cc12
TGI (A549 NSCLC): > 100 µM | TGI (SK-MEL-5 melanoma): > 100 µM | TGI (HL-60(TB) leukemia): 63 µM | TGI (HCT-15 colon): > 100 µM | TGI (CCRF-CEM leukemia): > 100 µM | TGI (M19-MEL melanoma): > 100 µM | TGI (XF 498 CNS): > 100 µM | TGI (M14 melanoma): > 100 µM | TGI (DLD-1 colon): 43.7 µM | TGI (HOP-62 NSCLC): > 100 µM | TGI (SNB-75 CNS): > 100 µM | TGI (DMS 114 small cell lung): > 100 µM | TGI (KM12 colon): > 100 µM | TGI (OVCAR-5 ovarian): > 100 µM | TGI (SK-MEL-28 melanoma): > 100 µM | TGI (786-0 renal): > 100 µM | TGI (RPMI-8226 leukemia): 79 µM | TGI (COLO 205 colon): > 100 µM | TGI (SF-295 CNS): > 100 µM | TGI (NCI-H226 lung): > 100 µM | TGI (NCI-H23 lung): > 100 µM | TGI (SF-268 CNS): > 100 µM | TGI (SNB-78 CNS): > 100 µM | TGI (SN12C renal): > 100 µM | TGI (CAKI-1 renal): > 100 µM | TGI (UO-31 renal): > 100 µM | TGI (OVCAR-4 ovarian): > 100 µM | TGI (UACC-257 melanoma): > 100 µM | TGI (SR leukemia): > 100 µM | TGI (HT29 colon): > 100 µM | TGI (HCC-2998 colon): > 100 µM | TGI (ACHN renal): > 100 µM | TGI (NCI-H460 lung): > 100 µM | TGI (TK-10 renal): > 100 µM | TGI (SK-MEL-2 melanoma): > 100 µM | TGI (OVCAR-3 ovarian): > 100 µM | TGI (MALME-3M melanoma): > 100 µM | TGI (HCT-116 colon): > 100 µM | TGI (DMS 273 small cell lung): > 100 µM | TGI (K-562 leukemia): > 100 µM | TGI (SNB-19 CNS): > 100 µM | TGI (OVCAR-8 ovarian): > 100 µM | TGI (HOP-18 NSCLC): > 100 µM | TGI (LOX IMVI melanoma): > 100 µM | TGI (SW-620 colon): > 100 µM | TGI (MOLT-4 leukemia): > 100 µM | TGI (EKVX NSCLC): > 100 µM | TGI (SF-539 CNS): > 100 µM
